In PubChem BioAssay AID330 (DTP/NCI, 2004):
Values joined by “and” are separate entries in the source; they are usually repeats but may differ in a detail not shown here. Equal entries are not always repeated. Toxic doses and inconclusive results are not listed. The calls were made as follows: active = survival T/C of 150% or more; inactive = T/C below 125% in these data.

Tested on: P388 leukemia ip, CD2F1 mice, survival T/C
Test: NCI In Vivo Anticancer Drug Screen. Data for tumor model P388 Leukemia (intraperitoneal) in CD2F1 (CDF1) mice
Conditions: endpoint: median survival time, higher = longer survival
Summary of the method: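 Mice carrying the transplanted tumor received test compound or vehicle. Survival was recorded in each group, and the value is the treated-group measurement divided by that of the vehicle-treated control group.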

[1] = dose: 50.0 mg/kg/injection, schedule: Q01DX005 (ip), vehicle: saline with Tween-80
[2] = dose: 100.0 mg/kg/injection, schedule: Q01DX005 (ip), vehicle: saline with Tween-80
[3] = dose: 200.0 mg/kg/injection, schedule: Q01DX005 (ip), vehicle: saline with Tween-80
[4] = dose: 6.25 mg/kg/injection, schedule: Q01DX005 (ip), vehicle: saline with Tween-80
[5] = dose: 12.5 mg/kg/injection, schedule: Q01DX005 (ip), vehicle: saline with Tween-80
[6] = dose: 25.0 mg/kg/injection, schedule: Q01DX005 (ip), vehicle: saline with Tween-80
[7] = dose: 50.0 mg/kg/injection, schedule: Q01DX005 (ip), vehicle: saline
[8] = dose: 100.0 mg/kg/injection, schedule: Q01DX005 (ip), vehicle: saline
[9] = dose: 200.0 mg/kg/injection, schedule: Q01DX005 (ip), vehicle: saline
[10] = dose: 50.0 mg/kg/injection, schedule: Q01DX009 (ip), vehicle: saline
[11] = dose: 100.0 mg/kg/injection, schedule: Q01DX009 (ip), vehicle: saline
[12] = dose: 200.0 mg/kg/injection, schedule: Q01DX009 (ip), vehicle: saline
[13] = dose: 60.0 mg/kg/injection, schedule: Q01DX005 (ip), vehicle: Klucel (hydroxypropylcellulose) (HPC)
[14] = dose: 120.0 mg/kg/injection, schedule: Q01DX005 (ip), vehicle: Klucel (hydroxypropylcellulose) (HPC)
[15] = dose: 100.0 mg/kg/injection, schedule: Q01DX009 (ip), vehicle: Klucel (hydroxypropylcellulose) (HPC)
[16] = dose: 50.0 mg/kg/injection, schedule: Q01DX005 (ip), vehicle: Klucel (hydroxypropylcellulose) (HPC)
[17] = dose: 100.0 mg/kg/injection, schedule: Q01DX005 (ip), vehicle: Klucel (hydroxypropylcellulose) (HPC)
[18] = dose: 200.0 mg/kg/injection, schedule: Q01DX005 (ip), vehicle: Klucel (hydroxypropylcellulose) (HPC)
[19] = dose: 50.0 mg/kg/injection, schedule: Q01DX009 (ip), vehicle: Klucel (hydroxypropylcellulose) (HPC)
[20] = dose: 200.0 mg/kg/injection, schedule: Q01DX009 (ip), vehicle: Klucel (hydroxypropylcellulose) (HPC)

Measured: T/C

CCOC(=O)CC1CCCN1Sc1ccc([N+](=O)[O-])cc1[N+](=O)[O-] (stereo not given)
inactive: [1] 100 % of control | [2] 101 % of control | [3] 100 % of control

CN1C2Cc3cc4c(cc3[C@@]23Cc2ccc5c(c2[C@@H]1O3)OCO5)OCO4 (stereo not given in full)
inactive: dose: 8.0 mg/kg/injection, schedule: Q01DX005 (ip), vehicle: Klucel (hydroxypropylcellulose) (HPC) 94 % of control | dose: 16.0 mg/kg/injection, schedule: Q01DX005 (ip), vehicle: Klucel (hydroxypropylcellulose) (HPC) 109 % of control | dose: 32.0 mg/kg/injection, schedule: Q01DX005 (ip), vehicle: Klucel (hydroxypropylcellulose) (HPC) 94 % of control | dose: 64.0 mg/kg/injection, schedule: Q01DX005 (ip), vehicle: Klucel (hydroxypropylcellulose) (HPC) 98 % of control

N=C1CCC(=N)c2c1c(O)c1ccccc1c2O
inactive: [4] 94 % of control | [5] 104 % of control | [6] 94 % of control

CC(O)(CO)CC(C)(O)CO (stereo not given)
inactive: [7] 97 % of control | [8] 105 % of control | [9] 103 % of control

CC[CH2][Sn]([Br])([Br])[CH2]CC
inactive: dose: 3.12 mg/kg/injection, schedule: Q04DX003 (ip), vehicle: saline 114 % of control | dose: 6.25 mg/kg/injection, schedule: Q04DX003 (ip), vehicle: saline 109 % of control

CCNC(CC)CCCNc1cc(OC)cc2cccnc12 (stereo not given)
inactive: [4] 106 % of control | [5] 98 % of control | [6] 102 % of control

Cc1ccc(C(=O)/C(N)=C/c2ccccn2)cc1
inactive: dose: 100.0 mg/kg/injection, schedule: Q01DX001 (ip), vehicle: saline 107 % of control | dose: 200.0 mg/kg/injection, schedule: Q01DX001 (ip), vehicle: saline 105 % of control | dose: 400.0 mg/kg/injection, schedule: Q01DX001 (ip), vehicle: saline 101 % of control

Cc1cc(C2=NCC(C)S2)ccc1OCCSCCOc1ccc(C2=NCC(C)S2)cc1C (stereo not given)
inactive: dose: 12.5 mg/kg/injection, schedule: Q01DX009 (ip), vehicle: saline with Tween-80 92 % of control | dose: 25.0 mg/kg/injection, schedule: Q01DX009 (ip), vehicle: saline with Tween-80 92 % of control

CCOC(=O)C1=C(c2ccccc2)N(C)c2ccccc2S1
inactive: dose: 60.0 mg/kg/injection, schedule: Q01DX005 (ip), vehicle: saline + Tween-80 + alcohol 100 % of control | dose: 120.0 mg/kg/injection, schedule: Q01DX005 (ip), vehicle: saline + Tween-80 + alcohol 103 % of control | dose: 240.0 mg/kg/injection, schedule: Q01DX005 (ip), vehicle: saline + Tween-80 + alcohol 100 % of control

C[n+]1ccc(CCNC2CCC(N=NC3CCC([N+](=O)[O-])CC3)CC2)cc1 (stereo not given)
inactive: [10] 105 % of control and 92 % of control | [11] 108 % of control | [12] 102 % of control and 118 % of control

Fc1cccc(Cl)c1C(Nc1cnccn1)Nc1cnccn1
inactive: [13] 104 % of control | [14] 119 % of control

CCOC(=O)NC(CC(C)C)C(=O)NC(CC(C)C)C(=O)OC(C)(C)C (stereo not given)
inactive: [1] 98 % of control | [2] 99 % of control | [3] 100 % of control

CC(=O)OCc1c(COC(C)=O)c(-c2ccc(Cl)c(Cl)c2)n2c1CCC2
inactive: [15] 122 % of control

CC1=NN(c2cc(S(=O)(=O)O)ccc2Cl)C(=O)C1
inactive: [10] 101 % of control | [11] 105 % of control | [12] 97 % of control

Cc1cccc(Cl)c1NC(=O)CS
inactive: dose: 100.0 mg/kg/injection, schedule: Q04DX003 (ip), vehicle: saline with Tween-80 100 % of control | dose: 200.0 mg/kg/injection, schedule: Q04DX003 (ip), vehicle: saline with Tween-80 104 % of control | dose: 400.0 mg/kg/injection, schedule: Q04DX003 (ip), vehicle: saline with Tween-80 100 % of control

O=C(O)C1CCN1 (stereo not given)
inactive: [11] 93 % of control | [12] 86 % of control | dose: 300.0 mg/kg/injection, schedule: Q01DX009 (ip), vehicle: saline 86 % of control

COc1cccc2c(=O)cc(-c3ccccc3)sc12
inactive: [13] 98 % of control | [14] 97 % of control | dose: 240.0 mg/kg/injection, schedule: Q01DX005 (ip), vehicle: Klucel (hydroxypropylcellulose) (HPC) 90 % of control

O=[N+]([O-])c1ccc(/C=C\c2ccc(Cl)cc2S(=O)(=O)F)c(Cl)c1
inactive: dose: 100.0 mg/kg/injection, schedule: Q01DX009 (ip), vehicle: saline with Tween-80 95 % of control | dose: 100.0 mg/kg/injection, schedule: Q04DX003 (ip), vehicle: Klucel (hydroxypropylcellulose) (HPC) 117 % of control | dose: 200.0 mg/kg/injection, schedule: Q01DX009 (ip), vehicle: saline with Tween-80 100 % of control | dose: 200.0 mg/kg/injection, schedule: Q04DX003 (ip), vehicle: Klucel (hydroxypropylcellulose) (HPC) 103 % of control | dose: 400.0 mg/kg/injection, schedule: Q01DX009 (ip), vehicle: saline with Tween-80 104 % of control | dose: 400.0 mg/kg/injection, schedule: Q04DX003 (ip), vehicle: Klucel (hydroxypropylcellulose) (HPC) 112 % of control

COc1ccc(N2C(=O)CC(c3cc(OC)c(OC)c(OC)c3)CC2=O)cc1
inactive: [16] 94 % of control | [17] 89 % of control | [18] 90 % of control

CCOC(=O)Cc1c[nH]c2ccc(N(CCO)CCO)cc12
inactive: dose: 25.0 mg/kg/injection, schedule: Q01DX005 (ip), vehicle: Klucel (hydroxypropylcellulose) (HPC) 101 % of control | [16] 102 % of control | [17] 102 % of control | [18] 98 % of control

COc1ccc(/C=N\S(=O)(=O)c2ccc(OC)cc2)cc1
inactive: [19] 111 % of control | [15] 102 % of control | [20] 95 % of control

CC(=O)C(C)OP(=O)(O)OCC[N+](C)(C)C (stereo not given)
inactive: dose: 12.5 mg/kg/injection, schedule: Q01DX009 (ip), vehicle: saline 100 % of control | dose: 25.0 mg/kg/injection, schedule: Q01DX009 (ip), vehicle: saline 104 % of control | [10] 114 % of control

COc1cccc2c1C(=O)c1c(O)c3c(c(O)c1C2=O)C[C@@](O)(C(=O)CSC(=O)c1ccccc1)C[C@@H]3OC1CC(N)C(O)C(C)O1 (stereo not given in full)
inactive: dose: 25.0 mg/kg/injection, schedule: Q01DX001 (ip), vehicle: water 123 % of control | dose: 50.0 mg/kg/injection, schedule: Q01DX001 (ip), vehicle: water 109 % of control

Cc1ccc2nc3c4ccccc4c4ccccc4c3nc2c1C
inactive: [1] 94 % of control | [2] 86 % of control | [3] 89 % of control

COC(=O)c1ccc(Cl)cc1OC
inactive: dose: 12.5 mg/kg/injection, schedule: Q01DX009 (ip), vehicle: distilled water + Tween-80 101 % of control | dose: 25.0 mg/kg/injection, schedule: Q01DX009 (ip), vehicle: distilled water + Tween-80 99 % of control | dose: 50.0 mg/kg/injection, schedule: Q01DX009 (ip), vehicle: distilled water + Tween-80 99 % of control | dose: 100.0 mg/kg/injection, schedule: Q01DX009 (ip), vehicle: distilled water + Tween-80 101 % of control | dose: 200.0 mg/kg/injection, schedule: Q01DX009 (ip), vehicle: distilled water + Tween-80 101 % of control

c1ccc(-c2ccc(NCCN3CCOCC3)nn2)cc1
inactive: [13] 100 % of control | [14] 105 % of control

COc1ccc(OC)c(NC(=O)Nc2nc(C)cs2)c1
inactive: [19] 92 % of control | [15] 93 % of control | [20] 90 % of control

COC(=O)C(=O)C(C)C(=O)C(C)c1nc(NC(=O)Nc2ccc(Cl)cc2)n[nH]1 (stereo not given)
inactive: dose: 60.0 mg/kg/injection, schedule: Q01DX005 (ip), vehicle: saline with Tween-80 101 % of control | dose: 120.0 mg/kg/injection, schedule: Q01DX005 (ip), vehicle: saline with Tween-80 101 % of control | dose: 240.0 mg/kg/injection, schedule: Q01DX005 (ip), vehicle: saline with Tween-80 100 % of control

Cc1ccc(C)c(NC(=O)/C=N/O)c1
inactive: [1] 98 % of control | [2] 110 % of control | [3] 105 % of control

COC(=O)C(=O)C(C)C(=O)C(C)c1nc2n(c1O)C(=N)N=N2 (stereo not given)
inactive: [7] 98 % of control | [8] 97 % of control | [9] 96 % of control
